Experimental data published in US20220363662A1, “COMPOUNDS AS LXR AGONISTS” (Integral Biosciences Privated Limited, priority 2021, published 2022).

The molecules below were run against T1, LXR beta (Homo sapiens, UniProt P55055) (assay: LXR beta agonist assay (Lanthascreen TR-FRET)). Conditions: LXR beta-LBD 5 nM, read-out: LXR-β EC50.
T1 construct: 5 μL of 4×LXR beta-LBD was added to each well (final concentration 5 nM); purchased Thermofisher PV4658
T1 sequence (P55055 222-460 limits assumed): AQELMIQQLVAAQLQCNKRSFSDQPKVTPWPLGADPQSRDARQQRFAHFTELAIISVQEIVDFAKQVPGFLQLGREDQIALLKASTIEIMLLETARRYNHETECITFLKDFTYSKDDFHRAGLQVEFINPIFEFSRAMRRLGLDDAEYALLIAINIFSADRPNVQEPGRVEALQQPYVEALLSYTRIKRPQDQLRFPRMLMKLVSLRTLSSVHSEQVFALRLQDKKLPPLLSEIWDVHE
Type: biochemical
Method: EC50 values of compounds against LXR beta were determined at Integral BioSciences (India) using Lanthascreen TR-FRET (Thermofisher, Cat #PV4658). Assay was performed in a 20 μL final volume in a Black 384-well plate (Corning, Cat #4511). Dose response curve for the compounds were prepared in duplicates with starting concentration at 30 μM and a three-fold titration was performed. The reaction buffer consisted of TR-FRET Coregulator Buffer G. To the compound dilution, 5 μL of 4×LXR beta-LBD was added to each well (final concentration 5 nM). An equal volume (5 μL) containing 4×Fl-D22/Tb-anti GST antibody (final concentration 100 nM/10 nM) was added to initiate the enzyme reaction and the reaction was incubated for 60 min at 22° C. after which the plates were read using BioTek Plate reader for TR-FRET every hour up to 4 hours.
Analysis was done using the standard curve by non-linear regression, variable slope inhibitor curve fits (Graph-Pad Prism) and EC50's of compounds were determined wherever possible.

| SMILES | EC50 |
| --- | --- |
| CN(C)C(=O)c1ccc(NC2CN(C3CCN(C(=O)[C@](O)(c4ccccc4)C(F)(F)F)CC3)C2)cc1Cl (single isomer, unassigned) [Compound 1.9] | > 30 µM |
| CN(C)C(=O)c1ccc(NC2CN(C3CCN(C(=O)[C@](O)(c4ccccc4)C(F)(F)F)CC3)C2)cc1F (single isomer, unassigned) [Compound 1.86] | > 30 µM |
| CN(C)C(=O)c1ccc(NC2CN(C3CCN(C(=O)[C@](O)(c4ccccc4)C(F)(F)F)CC3)C2)cc1F (single isomer, unassigned) [Compound 1.87] | > 30 µM |
| CCN(CC)C(=O)c1ccc(NC2CN(C3CCN(C(=O)[C@@](O)(c4ccccc4)C(F)(F)F)CC3)C2)cc1Cl (single isomer, unassigned) [Compound 1.96] | 4.57 µM |
| CCN(CC)C(=O)c1ccc(NC2CN(C3CCN(C(=O)[C@](O)(c4ccccc4)C(F)(F)F)CC3)C2)cc1Cl (single isomer, unassigned) [Compound 1.97] | 1.17 µM |
| O=C(c1ccc(NC2CN(C3CCN(C(=O)[C@@](O)(c4ccccc4)C(F)(F)F)CC3)C2)cc1Cl)N1CCCC1 (single isomer, unassigned) [Compound 1.99] | 1.82 µM |
| CC(=O)N1CCN(C(=O)c2ccc(NC3CN(C4CCN(C(=O)[C@@](O)(c5ccccc5)C(F)(F)F)CC4)C3)cc2Cl)CC1 (single isomer, unassigned) [Compound 1.105] | 2.25 µM |
| O=C(NCC(F)F)c1ccc(NC2CN(C3CCN(C(=O)[C@](O)(c4ccccc4)C(F)(F)F)CC3)C2)cc1Cl (single isomer, unassigned) [Compound 1.106] | 2.71 µM |
| O=C(NCC(F)F)c1ccc(NC2CN(C3CCN(C(=O)[C@@](O)(c4ccccc4)C(F)(F)F)CC3)C2)cc1Cl (single isomer, unassigned) [Compound 1.107] | 1.3 µM |
| O=C(c1ccc(NC2CN(C3CCN(C(=O)[C@](O)(c4ccccc4)C(F)(F)F)CC3)C2)cc1Cl)N1CCCCC1 (single isomer, unassigned) [Compound 1.108] | 1.57 µM |
| O=C(c1ccc(NC2CN(C3CCN(C(=O)[C@](O)(c4ccccc4)C(F)(F)F)CC3)C2)cc1Cl)N1CCCCC1 (single isomer, unassigned) [Compound 1.109] | 3.01 µM |
| CN(C)C(=O)c1ccc(NC2CN(C3CCN(C(=O)[C@@](O)(c4ccc(F)cc4)C(F)(F)F)CC3)C2)cc1Cl (single isomer, unassigned) [Compound 1.116] | 9.85 µM |
| CN(C)C(=O)c1ccc(NC2CN(C3CCN(C(=O)[C@@](O)(c4cccc(Cl)c4)C(F)(F)F)CC3)C2)cc1Cl (single isomer, unassigned) [Compound 1.118] | 0.241 µM |
| Cc1cccc([C@](O)(C(=O)N2CCC(N3CC(Nc4ccc(C(=O)N(C)C)c(Cl)c4)C3)CC2)C(F)(F)F)c1 (single isomer, unassigned) [Compound 1.121] | 2.85 µM |
| CN(C)C(=O)c1ccc(NC2CN(C3CCN(S(=O)(=O)c4ccccc4Cl)CC3)C2)cc1Cl [Compound 1.2, 2-chloro-4-(1-(1-(2-chlorophenylsulfonyl)piperidin-4-yl)azetidin-3-ylamino)-N,N-dimethylbenzamide] | 3.34 µM |
| CN(C)C(=O)c1ccc(-c2nnc(C3CCN(S(=O)(=O)c4ccccc4Cl)CC3)s2)cc1Cl [Compound 1.11, 2-chloro-4-(5-(1-(2-chlorophenylsulfonyl)piperidin-4-yl)-1,3,4-thiadiazol-2-yl)-N,N-dimethylbenzamide] | 3.09 µM |
| CN(C)C(=O)c1ccc(NC2CN(C3CCN(S(=O)(=O)c4ccccc4C#N)CC3)C2)cc1Cl [Compound 1.13, 2-chloro-4-(1-(1-(2-cyanophenylsulfonyl)piperidin-4-yl)azetidin-3-ylamino)-N,N-dimethylbenzamide] | 4.43 µM |

| SMILES | EC50 |
| --- | --- |
| N#Cc1ccccc1S(=O)(=O)N1CCC(C2CCN(c3cc(Cl)c4c(=O)[nH]ccc4c3)CC2)CC1 [Compound 1.15, 2-(1′-(8-chloro-1-oxo-1,2-dihydroisoquinolin-6-yl)-4,4′-bipiperidin-1-ylsulfonyl)benzonitrile] | 2.74 µM |
| O=C(N1CCC(C2CCN(c3cc(Cl)c4c(=O)[nH]ccc4c3)CC2)CC1)C1(c2ccccc2)CCC1 [Compound 1.22, 8-chloro-6-(1′-(1-phenylcyclobutanecarbonyl)-[4,4′-bipiperidin]-1-yl)isoquinolin-1(2H)-one] | 2.4 µM |
| CC(C)(C(=O)N1CCC(C2CCN(c3cc(Cl)c4c(=O)[nH]ccc4c3)CC2)CC1)c1ccccc1 [Compound 1.24, 8-chloro-6-(1′-(2-methyl-2-phenylpropanoyl)-4,4′-bipiperidin-1-yl)isoquinolin-1(2H)-one] | 2.48 µM |
| CN(C)C(=O)c1ccc(-c2ccn(C3CCN(C(=O)C(O)(c4ccccc4)C(F)(F)F)CC3)c(=O)c2)cc1Cl (stereo not drawn) [Compound 1.27, 2-chloro-N,N-dimethyl-4-(2-oxo-1-(1-(3,3,3-trifluoro-2-hydroxy-2-phenylpropanoyl)piperidin-4-yl)-1,2-dihydropyridin-4-yl)benzamide] | > 30 µM |
| CN(C)C(=O)c1ccc(N(C)C2CN(C3CCN(C(=O)C4(c5ccccc5)CCC4)CC3)C2)cc1Cl [Compound 1.31, 2-chloro-N,N-dimethyl-4-(methyl(1-(1-(1-phenylcyclobutanecarbonyl)piperidin-4-yl)azetidin-3-yl)amino)benzamide] | 3.23 µM |
| CN(C)C(=O)c1ccc(N(C)C2CN(C3CCN(C(=O)[C@](O)(c4ccccc4)C(F)(F)F)CC3)C2)cc1Cl [Compound 1.32, (R)-2-chloro-N,N-dimethyl-4-(methyl(1-(1-(3,3,3-trifluoro-2-hydroxy-2-phenylpropanoyl)piperidin-4-yl)azetidin-3-yl)amino)benzamide] | 7.23 µM |
| CN(C)C(=O)c1ccc(NC2CN(C3CCN(C(=O)C4(c5ccc(Cl)cc5)CCC4)CC3)C2)cc1Cl [Compound 1.33, 2-chloro-4-(1-(1-(1-(4-chlorophenyl)cyclobutanecarbonyl)piperidin-4-yl)azetidin-3-ylamino)-N,N-dimethylbenzamide] | 4.3 µM |
| CN(C)C(=O)c1ccc(NC2CN(C3CCN(C(=O)C4(c5ccc(F)cc5)CCCC4)CC3)C2)cc1Cl [Compound 1.34, 2-chloro-4-(1-(1-(1-(4-fluorophenyl)cyclopentanecarbonyl)piperidin-4-yl)azetidin-3-ylamino)-N,N-dimethylbenzamide] | 3.41 µM |
| CN(C)C(=O)c1ccc(-c2nnc(C3=CCN(C(=O)C(C)(C)C)CC3)s2)cc1Cl [Compound 1.59, 2-chloro-N,N-dimethyl-4-(5-(1-pivaloyl-1,2,3,6-tetrahydropyridin-4-yl)-1,3,4-thiadiazol-2-yl)benzamide] | 5.45 µM |
| CN(C)C(=O)c1ccc(-c2nnc(C3=CCN(C(=O)C4CCC(F)(F)CC4)CC3)s2)cc1Cl [Compound 1.60, 2-chloro-4-(5-(1-(4,4-difluorocyclohexanecarbonyl)-1,2,3,6-tetrahydropyridin-4-yl)-1,3,4-thiadiazol-2-yl)-N,N-dimethylbenzamide] | 1.51 µM |
| CN(C)C(=O)c1ccc(-c2nnc(C3=CCN(S(=O)(=O)c4cc(Cl)ccc4Cl)CC3)s2)cc1Cl [Compound 1.61, 2-chloro-4-(5-(1-(2,5-dichlorophenylsulfonyl)-1,2,3,6-tetrahydropyridin-4-yl)-1,3,4-thiadiazol-2-yl)-N,N-dimethylbenzamide] | > 10 µM |
| COc1ncc(Cl)cc1S(=O)(=O)N1CC=C(c2nnc(-c3ccc(C(=O)N(C)C)c(Cl)c3)s2)CC1 [Compound 1.62, 2-chloro-4-(5-(1-(5-chloro-2-methoxypyridin-3-ylsulfonyl)-1,2,3,6-tetrahydropyridin-4-yl)-1,3,4-thiadiazol-2-yl)-N,N-dimethylbenzamide] | > 10 µM |
| CN(C)C(=O)c1ccc(NC2CN(C3CCN(C(=O)C4CCC(F)(F)CC4)CC3)C2)cc1Cl [Compound 1.63, 2-chloro-4-(1-(1-(4,4-dfluorocyclohexanecarbonyl)piperidin-4-yl)azetidin-3-ylamino)-N,N-dimethylbenzamide] | > 30 µM |
| COc1cccc(C2(C(=O)N3CC=C(c4nnc(-c5ccc(C(=O)N(C)C)c(Cl)c5)s4)CC3)CCCC2)c1 [Compound 1.64, 2-chloro-4-(5-(1-(1-(3-methoxyphenyl)cyclopentanecarbonyl)-1,2,3,6-tetrahydropyridin-4-yl)-1,3,4-thiadiazol-2-yl)-N,N-dimethylbenzamide] | > 30 µM |
| CN(C)C(=O)c1ccc(-c2nnc(C3=CCN(C(=O)C45CC6CC(CC(C6)C4)C5)CC3)s2)cc1Cl [Compound 1.65, 4-{5-[1-(adamantane-1-carbonyl)-1,2,3,6-tetrahydropyridin-4-yl]-1,3,4-thiadiazol-2-yl}-2-chloro-N,N-dimethylbenzamide] | 3.96 µM |
| CN(C)C(=O)c1ccc(NC2CN(C3CCN(C(=O)C45CC6CC(CC(C6)C4)C5)CC3)C2)cc1Cl [Compound 1.66, 4-({1-[1-(adamantane-1-carbonyl)piperidin-4-yl]azetidin-3-yl}amino)-2-chloro-N,N-dimethylbenzamide] | > 20.4 µM |
